Laboratory results from US20160052898A1, “NOVEL COMPOUNDS” (BAYER PHARMA AKTIENGESELLSCHAFT, priority 2013, published 2016).
Like-named read-outs stand apart in the source and are kept apart here.

Experiments:
[1] = tested on: constitutive active colorectal cancer cell (CRC) Wnt pathway; test: HCT116 Super TopFlash cellular reporter assay (constitutive active Wnt pathway); format: cell-based; settings: HCT116 TOP reporter cells, luciferase expression, 36 hours incubation, 50 μM to 15 nM
Outline: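 Luciferase luminescence served as the Wnt read-out after 36 h of compound treatment at 37 °C. Compound came from a pre-dilution series (50 μM down to 15 nM, 3.16-fold steps) in CAFTY buffer. Cells were stable HCT116 TOP reporter cells, with matched FOP-vector control cells tested in parallel, seeded a day earlier.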

[2] = tested on: HCT116 FOP control reporter cell line; test: HCT116 FOP control vector reporter assay (non-functional TCF elements); format: cell-based; settings: HCT116 FOP control reporter cells, luciferase expression, 36 hours incubation, 50 μM to 15 nM, read-out: HCT116 FOPFlash IC50
Outline: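 Stable HCT116 line carrying the non-functional FOP luciferase construct, 10000 cells/well plated 24 hrs before. Compounds 50 μM to 15 nM (3.16-fold steps) in CAFTY buffer pH 7.4 with 2 mM Ca2+, 36 hours at 37° C; luciferase luminescence read.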

Structure (SMILES)	IC50 ([1]; Homo sapiens, HCT-116, 36 h) [nM]	IC50 ([2]; Homo sapiens, HCT-116, 36 h) [nM]	IC50 [1] [nM]	IC50 [2] [nM]
CN(C)C1(C(=O)Nc2cc(NC(=O)c3ccc(-c4ccccc4)cc3)ccc2OC(F)(F)F)CC1 [Example 188, N-[3-({[1-(dimethylamino)cyclopropyl]carbonyl}amino)-4-(trifluoromethoxy)phenyl] biphenyl-4-carboxamide]	456	33000	–	–
COc1ccc(NC(=O)c2ccc(-c3ccccc3)cc2)cc1NC(=O)CN1C[C@H]2C[C@@H]1CO2 [Example 205, N-(4-methoxy-3-{[(1R,4R)-2-oxa-5-azabicyclo[2.2.1]hept-5-ylacetyl]amino}phenyl) biphenyl-4-carboxamide]	2450	≥ 50000	–	–
COCCOCCOc1ccc(C(=O)Nc2ccc(-c3ccc(C)cc3)cc2)cc1NC(=O)C1(N2CCOCC2)CC1 [Example 221, 4-[2-(2-methoxyethoxy)ethoxy]-N-(4′-methylbiphenyl-4-yl)-3-({[1-(morpholin-4-yl)cyclopropyl]carbonyl}amino)benzamide]	1100	≥ 50000	–	–
O=C(Nc1ccc(OC(F)(F)F)c(NC(=O)C2(N3CCOCC3)CC2)c1)c1ccc(-c2ccccc2)cc1 [Example 148, N-[3-({[1-(morpholin-4-yl)cyclopropyl]carbonyl}amino)-4-(trifluoromethoxy)phenyl] biphenyl-4-carboxamide]	12.2	≥ 50000	–	–
COc1ccc(NC(=O)c2ccc(-c3ccccc3)cc2)cc1NC(=O)C1(N(C)C)CC1 [Example 189, N-[3-({[1-(dimethylamino)cyclopropyl]carbonyl}amino)-4-methoxyphenyl]biphenyl-4-carboxamide]	479	≥ 50000	–	–
COCc1ccc(C(=O)Nc2ccc(-c3ccccc3)cc2)cc1NC(=O)C(C)N1CC2CCC(C1)O2 (stereo not drawn) [Example 170, N-(biphenyl-4-yl)-4-(methoxymethyl)-3-{(2-(8-oxa-3-azabicyclo[3.2.1]oct-3-yl)propanoyl)amino} benzamide]	178	7400	–	–
Cc1noc(-c2ccc(C(=O)Nc3ccc(-c4ccccc4)cc3)cc2NC(=O)CN2CCOCC2)n1 [Example 194, N-(biphenyl-4-yl)-4-(3-methyl-1,2,4-oxadiazol-5-yl)-3-[(morpholin-4-ylacetyl)amino]benzamide]	864	≥ 50000	–	–
COc1ccc(NC(=O)c2ccc(-c3ccccc3)cc2)cc1NC(=O)CN1CCC2(CCO2)C1 (stereo not drawn) [Example 46, N-{4-methoxy-3-[(1-oxa-6-azaspiro[3.4]oct-6-ylacetyl)amino]phenyl}biphenyl-4-carboxamide]	3450	≥ 50000	–	–
C[C@H](C(=O)Nc1cc(NC(=O)c2ccc(-c3ccccc3)cc2)ccc1F)N1CCOCC1 [Example 31, N-(4-fluoro-3-{[(2R)-2-(morpholin-4-yl)propanoyl]amino}phenyl)biphenyl-4-carboxamide]	3830	≥ 50000	–	–
NC(C(=O)Nc1cc(NC(=O)c2ccc(-c3ccccc3)cc2)ccc1OC(F)(F)F)C(F)(F)F (stereo not drawn) [Example 135, N-{3-[(333-trifluoroalanyl)amino]-4-[trifluoromethoxy)phenyl) biphenyl-4-carboxamide]	592	≥ 50000	–	–
CCC(C(=O)Nc1cc(C(=O)Nc2ccc(-c3ccccc3)cc2)ccc1OC)N1CCOCC1 (single isomer, unassigned) [Example 132, N-(biphenyl-4-yl)-4-methoxy-3-{[(2S*)-2-(morpholin-4-yl)butanoyl]amino} benzamide]	–	–	310	≥ 50000
NC(=O)COc1ccc(C(=O)Nc2ccc(-c3ccccc3)cc2)cc1NC(=O)CN1CCOCC1 [Example 122, 4-(2-amino-2-oxoethoxy)-N-(biphenyl-4-yl)-3-[(morpholin-4-ylacetyl)amino]benzamide]	338	15500	–	–
O=C(CN1CCN(C2CC2)CC1)Nc1cc(C(=O)Nc2ccc(-c3ccccc3)cc2)ccc1OCC1CC1 [Example 219, N-(biphenyl-4-yl)-4-(cyclopropylmethoxy)-3-{[(4-cyclopropylpiperazin-1-yl)acetyl]amino}benzamide]	65.5	≥ 50000	–	–
COc1ccc(NC(=O)c2ccc(-c3ccc(O)cc3)cc2)cc1NC(=O)CN1CCOCC1 [Example 195, 4′-hydroxy-N-{4-methoxy-3-[(morpholin-4-ylacetyl)amino)phenyl} biphenyl-4-carboxamide]	975	39000	–	–
O=C(CN1CCOCC1)Nc1cc(C(=O)Nc2ccc(-c3ccccc3)cc2)ccc1OCCCO [Example 121, N-(biphenyl-4-yl)-4-(3-hydroxypropoxy)-3-[(morpholin-4-ylacetyl)amino]benzamide]	237	≥ 50000	–	–
C[C@H](C(=O)Nc1cc(NC(=O)c2ccc(-c3ccccc3)cc2)ccc1OC(F)(F)F)N1CC2CCC(C1)O2 [Example 60, N-[3-{[(2R)-2-(8-oxa-3-azabicyclo[3.2.1]oct-3-yl)propanoyl]amino}-4-(trifluoromethoxy)phenyl]biphenyl-4-carboxamide]	582	≥ 50000	–	–
O=C(CN1CCOCC1)Nc1cc(NC(=O)c2ccc(-c3ccccc3)cc2)ccc1O [Example 84, N-{4-hydroxy-3-[(morpholin-4-ylacetyl)amino]phenyl}biphenyl-4-carboxamide]	2030	≥ 50000	–	–
CC(C(=O)Nc1cc(NC(=O)c2ccc(-c3ccccc3)cc2)ccc1C(F)(F)F)N1CCOCC1 (stereo not drawn) [Example 161, N-[3-{[2-(morpholin-4-yl)propanoyl]amino}-4-(trifluoromethyl)phenyl] biphenyl-4-carboxamide]	98	≥ 50000	–	–
O=C(Nc1ccc(-c2ccccc2)cc1)c1ccc(F)c(NC(=O)C2(N3CCOCC3)CC2)c1 [Example 151, N-(biphenyl-4-yl)-4-fluoro-3-({[1-(morpholin-4-yl)cyclopropyl]carbonyl}amino)benzamide]	28.2	≥ 50000	–	–
CCC(C(=O)Nc1cc(C(=O)Nc2ccc(-c3ccccc3)cc2)ccc1OC)N1CCOCC1 (single isomer, unassigned) [Example 131, N-(biphenyl-4-yl)-4-methoxy-3-{[(2R*)-2-(morpholin-4-yl)butanoyl)amino} benzamide]	174	≥ 50000	–	–
COCCOCCOc1ccc(C(=O)Nc2ccc(-c3ccccc3)cc2)cc1NC(=O)C1(N2CCOCC2)CC1 [Example 217, N-(biphenyl-4-yl)-4-[2-(2-methoxyethoxy}ethoxy)-3-({[1-(morpholin-4-yl)cyclopropyl]carbonyl}amino)benzamide]	27	1630	–	–
COc1ccc(NC(=O)c2ccc(-c3ccccc3)cc2)cc1NC(=O)C1(NC(=O)OC(C)(C)C)CC1 [Example 129, tert-butyl[1-({5-[(biphenyl-4-ylcarbonyl)amino]-2-methoxyphenyl}carbamoyl)cyclopropyl]carbamate]	195	11000	–	–
CC(=O)NCCCOc1ccc(C(=O)Nc2ccc(-c3ccccc3)cc2)cc1NC(=O)CN1CCOCC1 [Example 126, 4-(3-acetamidopropoxy)-N-(biphenyl-4-yl)-3-[(morpholin-4-ylacetyl)amino]benzamide]	222	≥ 50000	–	–
CCC(C(=O)Nc1cc(C(=O)Nc2ccc(-c3ccccc3)cc2)ccc1OC)N1CCOCC1 (stereo not drawn) [Example 99, N-(biphenyl-4-yl)-4-methoxy-3-{[2-(morpholin-4-yl)butanoyl]amino}benzamide]	380	≥ 50000	–	–
